# pEC50, pIC50: −log10 of the molar value.
# Test system: Influenza strain A549 A/WSN/33 (H1N1)
# Assay: Influenza Antiviral Assay
# Assay type: cell-based, Influenza A virus
# Conditions: Influenza A virus, A549, 20 h, neuraminidase fluorescence readout, read-out: % Inhibition
row,SMILES,pEC50
1,Cc1cn(C2(Cn3cc(O)c(=O)c(C(=O)NC4CC4)n3)CCCC2)c2ncccc12 [Compound 661],> 4.70
2,CNC(=O)c1nn(CC2(n3cc(C)c4cccnc43)CCCC2)cc(OC(=O)OCC(C)(C)C)c1=O [Compound 801],> 4.70
3,O=C(O)c1nn(-c2ccccc2N2CCCC2Cc2ccccc2)cc(O)c1=O (centres unmarked) [Compound 203],4.00 to 4.70
4,CNC(=O)c1nn(CC2(c3cccc(Br)c3)CCCC2)cc(O)c1=O [Compound 666],> 4.70
5,O=C(O)c1nn(CCc2cccc3ccccc23)cc(O)c1=O [Compound 423],< 4.00
6,CNC(=O)c1nn(CC2(c3ccc(C)cc3)CC2)cc(O)c1=O [Compound 656],< 4.00
7,Cc1cn(C2(Cn3cc(O)c(=O)c(C(=O)NCC(C)(C)CN)n3)CCCC2)c2ncccc12 [Compound 870],4.00 to 4.70
8,CNC(=O)c1nn(CC2(n3cc(C)c4cccnc43)CCCC2)cc(OC(C)=O)c1=O [Compound 662],> 4.70
9,CCc1cccc(C2(Cn3cc(O)c(=O)c(C(=O)NC)n3)CCCC2)c1 [Compound 733],> 4.70
10,Cc1cn(C2(Cn3cc(O)c(=O)c(C(=O)NCCN)n3)CCCC2)c2ncccc12 [Compound 865],> 4.70
11,CNC(=O)c1nn(-c2ccccc2-c2ccccc2C(C)C)cc(O)c1=O [Compound 519],4.00 to 4.70
12,CNC(=O)c1nn(CCN2c3ccccc3CCc3ccccc32)cc(O)c1=O [Compound 840],< 4.00
13,CC1(C)CC(Cn2cc(O)c(=O)c(C(=O)NCc3ccc(F)c(Cl)c3)n2)(c2ccccc2)C1 [Compound 799],> 4.70
14,CNC(=O)c1nn(CC2(n3cc(C)c4cccnc43)CCCC2)cc(OC(=O)OC(C)C)c1=O [Compound 793],> 4.70
15,CNC(=O)c1nn(CC2(c3ccc4cc(C)cnc4c3)CCCC2)cc(O)c1=O [Compound 890],> 4.70
16,O=C(Nc1ccc(Cl)cc1)c1nn(CC2(c3ccccc3)CCCC2)cc(O)c1=O [Compound 720],< 4.00
17,CNC(=O)c1nn(CC2(c3ccc4ccncc4c3)CCCC2)cc(O)c1=O [Compound 848],< 4.00

row,SMILES,pEC50
1,O=C(NCc1ccc(F)c(Cl)c1)c1nn(CC2(c3cccc(Cl)c3)CCCC2)cc(O)c1=O [Compound 750],> 4.70
2,Cc1ccc(C2(Cn3cc(O)c(=O)c(C(=O)O)n3)CC2)cc1 [Compound 655],< 4.00
3,"O=C(O)c1nn(-c2cccc(C(F)(F)F)c2)cc(O)c1=O [Compound 1, 5-hydroxy-4-oxo-1-(3-(trifluoromethyl)phenyl)-1,4-dihydropyridazine-3-carboxylic acid]",< 4.00
4,CNC(=O)c1nn(CCN2c3ccccc3C=Cc3ccccc32)cc(O)c1=O [Compound 838],> 4.70
5,CNC(=O)c1nn(CC2(c3cc4ccccc4cc3Cl)CCCC2)cc(O)c1=O [Compound 893],> 4.70
6,O=C(NC1CC1)c1nn(CC2(c3cccc(C(F)(F)F)c3)CCCC2)cc(O)c1=O [Compound 507],> 4.70
7,CNC(=O)c1nn(CC2(n3cnc4cncnc43)CCCC2)cc(O)c1=O [Compound 855],< 4.00
8,Cc1cn(C2(Cn3cc(O)c(=O)c(C(=O)NC(C)(C)CN)n3)CCCC2)c2ccccc12 [Compound 868],> 4.70
9,Cc1csc(CNC(=O)c2nn(CC3(c4cccc(C(F)(F)F)c4)CCCC3)cc(O)c2=O)c1 [Compound 663],< 4.00
10,CC1(C)CCN(c2ccccc2-n2cc(O)c(=O)c(C(=O)O)n2)CC1 [Compound 206],4.00 to 4.70
11,O=C1NCCCCCOc2ccc(cc2)C2(CCCC2)Cn2cc(O)c(=O)c1n2 [Compound 873],< 4.00
12,Cc1cn(C2(Cn3cc(O)c(=O)c(C(=O)N4CCOCC4)n3)CCCC2)c2ncccc12 [Compound 877],< 4.00
13,Cc1ccc(CNC(=O)c2nn(CC3(c4cccc(C(F)(F)F)c4)CCCC3)cc(O)c2=O)cc1 [Compound 524],> 4.70
14,CNC(=O)c1nn(CC2(n3cc(C)c4cc(Cl)cnc43)CCCC2)cc(O)c1=O [Compound 851],> 4.70
15,CC1(C)CC(Cn2cc(O)c(=O)c(C(=O)NCc3ccccc3)n2)(c2ccccc2)C1 [Compound 798],< 4.00
16,CCNC(=O)c1nn(CC2(c3ccc4ccccc4c3)CCCC2)cc(O)c1=O [Compound 828],> 4.70
17,O=C(Nc1ccccc1)c1nn(CC2(c3cccc(C(F)(F)F)c3)CCCC2)cc(O)c1=O [Compound 517],> 4.70

# Molecular target: EN PA (Influenza A virus, UniProt P15659)
# Assay: EN PA FRET Inhibition Assay
# Assay type: biochemical
# Conditions: read-out: Potency
row,SMILES,pIC50
1,Cc1cn(C2(Cn3cc(O)c(=O)c(C(=O)NC4CC4)n3)CCCC2)c2ncccc12 [Compound 661],> 7.00
2,CNC(=O)c1nn(CC2(n3cc(C)c4cccnc43)CCCC2)cc(OC(=O)OCC(C)(C)C)c1=O [Compound 801],> 7.00
3,O=C(O)c1nn(-c2ccccc2N2CCCC2Cc2ccccc2)cc(O)c1=O (centres unmarked) [Compound 203],6.00 to 7.00
4,CNC(=O)c1nn(CC2(c3cccc(Br)c3)CCCC2)cc(O)c1=O [Compound 666],> 7.00
5,O=C(O)c1nn(CCc2cccc3ccccc23)cc(O)c1=O [Compound 423],6.00 to 7.00
6,CNC(=O)c1nn(CC2(c3ccc(C)cc3)CC2)cc(O)c1=O [Compound 656],6.00 to 7.00
7,Cc1cn(C2(Cn3cc(O)c(=O)c(C(=O)NCC(C)(C)CN)n3)CCCC2)c2ncccc12 [Compound 870],> 7.00
8,CNC(=O)c1nn(CC2(n3cc(C)c4cccnc43)CCCC2)cc(OC(C)=O)c1=O [Compound 662],> 7.00
9,CCc1cccc(C2(Cn3cc(O)c(=O)c(C(=O)NC)n3)CCCC2)c1 [Compound 733],> 7.00
10,Cc1cn(C2(Cn3cc(O)c(=O)c(C(=O)NCCN)n3)CCCC2)c2ncccc12 [Compound 865],> 7.00
11,CNC(=O)c1nn(-c2ccccc2-c2ccccc2C(C)C)cc(O)c1=O [Compound 519],6.00 to 7.00
12,CNC(=O)c1nn(CCN2c3ccccc3CCc3ccccc32)cc(O)c1=O [Compound 840],6.00 to 7.00
13,CC1(C)CC(Cn2cc(O)c(=O)c(C(=O)NCc3ccc(F)c(Cl)c3)n2)(c2ccccc2)C1 [Compound 799],> 7.00
14,CNC(=O)c1nn(CC2(n3cc(C)c4cccnc43)CCCC2)cc(OC(=O)OC(C)C)c1=O [Compound 793],6.00 to 7.00
15,CNC(=O)c1nn(CC2(c3ccc4cc(C)cnc4c3)CCCC2)cc(O)c1=O [Compound 890],> 7.00
16,O=C(Nc1ccc(Cl)cc1)c1nn(CC2(c3ccccc3)CCCC2)cc(O)c1=O [Compound 720],> 7.00
17,CNC(=O)c1nn(CC2(c3ccc4ccncc4c3)CCCC2)cc(O)c1=O [Compound 848],> 7.00

row,SMILES,pIC50
1,O=C(NCc1ccc(F)c(Cl)c1)c1nn(CC2(c3cccc(Cl)c3)CCCC2)cc(O)c1=O [Compound 750],> 7.00
2,Cc1ccc(C2(Cn3cc(O)c(=O)c(C(=O)O)n3)CC2)cc1 [Compound 655],> 7.00
3,"O=C(O)c1nn(-c2cccc(C(F)(F)F)c2)cc(O)c1=O [Compound 1, 5-hydroxy-4-oxo-1-(3-(trifluoromethyl)phenyl)-1,4-dihydropyridazine-3-carboxylic acid]",6.00 to 7.00
4,CNC(=O)c1nn(CCN2c3ccccc3C=Cc3ccccc32)cc(O)c1=O [Compound 838],> 7.00
5,CNC(=O)c1nn(CC2(c3cc4ccccc4cc3Cl)CCCC2)cc(O)c1=O [Compound 893],> 7.00
6,O=C(NC1CC1)c1nn(CC2(c3cccc(C(F)(F)F)c3)CCCC2)cc(O)c1=O [Compound 507],6.00 to 7.00
7,CNC(=O)c1nn(CC2(n3cnc4cncnc43)CCCC2)cc(O)c1=O [Compound 855],6.00 to 7.00
8,Cc1cn(C2(Cn3cc(O)c(=O)c(C(=O)NC(C)(C)CN)n3)CCCC2)c2ccccc12 [Compound 868],> 7.00
9,Cc1csc(CNC(=O)c2nn(CC3(c4cccc(C(F)(F)F)c4)CCCC3)cc(O)c2=O)c1 [Compound 663],6.00 to 7.00
10,CC1(C)CCN(c2ccccc2-n2cc(O)c(=O)c(C(=O)O)n2)CC1 [Compound 206],6.00 to 7.00
11,O=C1NCCCCCOc2ccc(cc2)C2(CCCC2)Cn2cc(O)c(=O)c1n2 [Compound 873],6.00 to 7.00
12,Cc1cn(C2(Cn3cc(O)c(=O)c(C(=O)N4CCOCC4)n3)CCCC2)c2ncccc12 [Compound 877],6.00 to 7.00
13,Cc1ccc(CNC(=O)c2nn(CC3(c4cccc(C(F)(F)F)c4)CCCC3)cc(O)c2=O)cc1 [Compound 524],6.00 to 7.00
14,CNC(=O)c1nn(CC2(n3cc(C)c4cc(Cl)cnc43)CCCC2)cc(O)c1=O [Compound 851],> 7.00
15,CC1(C)CC(Cn2cc(O)c(=O)c(C(=O)NCc3ccccc3)n2)(c2ccccc2)C1 [Compound 798],6.00 to 7.00
16,CCNC(=O)c1nn(CC2(c3ccc4ccccc4c3)CCCC2)cc(O)c1=O [Compound 828],> 7.00
17,O=C(Nc1ccccc1)c1nn(CC2(c3cccc(C(F)(F)F)c3)CCCC2)cc(O)c1=O [Compound 517],6.00 to 7.00
